# Measured values from ChEMBL document CHEMBL3045469, “Design, synthesis and preliminary evaluation of some novel [1,4]diazepino [5,6-b]pyrrolizine and 6-(2-oxopyrrolidino)-1H-pyrrolizine derivatives as anticonvulsant agents” (Med Chem Res, 2011).
# How the values were obtained:
# [1] = test system: Mus musculus; assay: Anticonvulsant activity in Mus musculus Swiss albino (mouse) assessed as protection against pentylenetetrazole-induced seizures at 75 mg/kg, ip administered 1 hr prior to pentylenetetrazole-challenge measured up to 1 hr relative to control; assay type: functional; settings: route intraperitoneal
# [2] = test system: Mus musculus; assay: Anticonvulsant activity in Mus musculus Swiss albino (mouse) assessed as protection against pentylenetetrazole-induced seizures at 100 mg/kg, ip administered 1 hr prior to pentylenetetrazole-challenge measured up to 1 hr relative to control; assay type: functional; settings: route intraperitoneal
# [3] = test system: Mus musculus; assay: Anticonvulsant activity in ip dosed Mus musculus Swiss albino (mouse) assessed as protection against pentylenetetrazole-induced seizures administered 1 hr prior to pentylenetetrazole-challenge measured up to 1 hr; assay type: functional; settings: read-out: PD50
# [4] = test system: Mus musculus; assay: Anticonvulsant activity in Mus musculus Swiss albino (mouse) assessed as protection against pentylenetetrazole-induced seizures at 50 mg/kg, ip administered 1 hr prior to pentylenetetrazole-challenge measured up to 1 hr relative to control; assay type: functional; settings: route intraperitoneal
# [5] = test system: Mus musculus; assay: Anticonvulsant activity in ip dosed Mus musculus Swiss albino (mouse) assessed as protection against pentylenetetrazole-induced seizures administered 1 hr prior to pentylenetetrazole-challenge measured up to 1 hr relative to phenobarbital; assay type: functional
# [6] = test system: Mus musculus; assay: Toxicity in Mus musculus albino (mouse) assessed as mortality at 600 to 2400 mg/kg, ip after 24 hr; assay type: organism-based; set-up: dose 600-2400 mg/kg, route intraperitoneal; settings: in vivo
# [7] = test system: Mus musculus; assay: Toxicity in Mus musculus albino (mouse) assessed as mortality at 300 mg/kg, ip after 24 hr; assay type: organism-based; set-up: dose 300 mg/kg, route intraperitoneal; settings: in vivo
# [8] = Toxicity in ip dosed Mus musculus albino (mouse) after 24 hr; assay type: organism-based; settings: in vivo
# [9] = test system: Mus musculus; assay: Anticonvulsant activity in Mus musculus Swiss albino (mouse) assessed as protection against pentylenetetrazole-induced seizures at 10 mg/kg, ip administered 1 hr prior to pentylenetetrazole-challenge measured up to 1 hr relative to control; assay type: functional; settings: route intraperitoneal
# [10] = test system: Mus musculus; assay: Toxicity in Mus musculus albino (mouse) assessed as mortality at 100 mg/kg, ip after 24 hr; assay type: organism-based; set-up: dose 100 mg/kg, route intraperitoneal; settings: in vivo
# [11] = test system: Mus musculus; assay: Anticonvulsant activity in Mus musculus Swiss albino (mouse) assessed as protection against pentylenetetrazole-induced seizures at 20 mg/kg, ip administered 1 hr prior to pentylenetetrazole-challenge measured up to 1 hr relative to control; assay type: functional; settings: route intraperitoneal
# [12] = test system: Mus musculus; assay: Toxicity in Mus musculus albino (mouse) assessed as mortality at 160 to 400 mg/kg, ip after 24 hr; assay type: organism-based; set-up: dose 160-400 mg/kg, route intraperitoneal; settings: in vivo
# [13] = test system: Mus musculus; assay: Anticonvulsant activity in Mus musculus Swiss albino (mouse) assessed as protection against pentylenetetrazole-induced seizures at 30 mg/kg, ip administered 1 hr prior to pentylenetetrazole-challenge measured up to 1 hr relative to control; assay type: functional; settings: route intraperitoneal
compound,measurement,setting,value
N#Cc1c(NC(=O)CCCCl)c(C(=O)Nc2ccc(Cl)cc2)n2c1CCC2,Activity,[1],40%
same,Activity,[2],40%
same,ED50,[3],117 mg/kg
same,Activity,[4],20%
same,Activity,[5],19.7%
N#Cc1c(N2CCCC2=O)c(C(=O)Nc2ccccc2)n2c1CCC2,Activity,[1],20%
same,Activity,[2],0%
same,ED50,[3],55.6 mg/kg
same,Activity,[4],60%
same,Activity,[5],34.2%
Cc1ccc(NC(=O)c2c(N3CCCC3=O)c(C#N)c3n2CCC3)cc1,Activity,[6],Toxic
same,Activity,[1],0%
same,Activity,[7],Non-toxic
same,LD50 at 24 h,[8],1010 mg/kg
same,Activity,[2],0%
same,ED50,[3],29.2 mg/kg
same,Activity,[4],40%
same,Activity,[5],67.9%
N#Cc1c(N2CCCC2=O)c(C(=O)Nc2ccc(Cl)cc2)n2c1CCC2,Activity,[1],20%
same,Activity,[2],0%
same,ED50,[3],37.5 mg/kg
same,Activity,[4],40%
same,Activity,[5],55.8%
N#Cc1c(NC(=O)CCl)c(C(=O)Nc2ccccc2)n2c1CCC2,Activity,[1],20%
same,Activity,[2],40%
same,ED50,[3],112 mg/kg
same,Activity,[4],0%
same,Activity,[5],17.3%
Cc1ccc(NC(=O)c2c(NC(=O)CCl)c(C#N)c3n2CCC3)cc1,Activity,[1],40%
same,Activity,[2],40%
same,ED50,[3],117 mg/kg
same,Activity,[4],20%
same,Activity,[5],17.4%
N#Cc1c(NC(=O)CCl)c(C(=O)Nc2ccc(Cl)cc2)n2c1CCC2,Activity,[1],40%
same,Activity,[2],60%
same,ED50,[3],88.9 mg/kg
same,Activity,[4],0%
same,Activity,[5],24.1%
N#Cc1c2c(n3c1CCC3)C(=O)N(c1ccccc1)CC(=O)N2,Activity,[1],40%
same,Activity,[2],40%
same,ED50,[3],117 mg/kg
same,Activity,[4],20%
same,Activity,[5],14.9%
Cc1ccc(N2CC(=O)Nc3c(C#N)c4n(c3C2=O)CCC4)cc1,Activity,[1],20%
same,Activity,[2],20%
same,ED50,[3],167 mg/kg
same,Activity,[4],0%
same,Activity,[5],10.9%
N#Cc1c2c(n3c1CCC3)C(=O)N(c1ccc(Cl)cc1)CC(=O)N2,Activity,[1],0%
same,Activity,[2],20%
same,ED50,[3],183 mg/kg
same,Activity,[4],0%
same,Activity,[5],10.6%
CN1C(=O)CN(c2ccccc2)C(=O)c2c1c(C#N)c1n2CCC1,Activity,[1],20%
same,Activity,[2],40%
same,ED50,[3],112 mg/kg
same,Activity,[4],0%
same,Activity,[5],16.2%
Cc1ccc(N2CC(=O)N(C)c3c(C#N)c4n(c3C2=O)CCC4)cc1,Activity,[1],20%
same,Activity,[2],20%
same,ED50,[3],167 mg/kg
same,Activity,[4],0%
same,Activity,[5],11.4%
CN1C(=O)CN(c2ccc(Cl)cc2)C(=O)c2c1c(C#N)c1n2CCC1,Activity,[1],20%
same,Activity,[2],40%
same,ED50,[3],133 mg/kg
same,Activity,[4],20%
same,Activity,[5],15.1%
N#Cc1c(NC(=O)CCCCl)c(C(=O)Nc2ccccc2)n2c1CCC2,Activity,[1],40%
same,Activity,[2],60%
same,ED50,[3],88.9 mg/kg
same,Activity,[4],0%
same,Activity,[5],23.7%
Cc1ccc(NC(=O)c2c(NC(=O)CCCCl)c(C#N)c3n2CCC3)cc1,Activity,[1],20%
same,Activity,[2],40%
same,ED50,[3],112 mg/kg
same,Activity,[4],0%
same,Activity,[5],19.4%
CCC1(c2ccccc2)C(=O)NC(=O)NC1=O [PHENOBARBITAL],Activity,[9],40%
same,LD50 at 24 h,[8],251 mg/kg
same,Activity,[10],Non-toxic
same,Activity,[11],60%
same,ED50,[3],14.4 mg/kg
same,Activity,[12],Toxic
same,Activity,[13],100%
